One block for each molecule: values may come before it.
Columns and labels:
[1] = target: Baculoviral IAP repeat-containing protein 2/Cellular retinoic acid-binding protein 2 (Homo sapiens, UniProt P29373+Q13490); experiment: Protac activity at cIAP1 (unknown origin)/CRABP-II (unknown origin) assessed as protein degradation
[2] = target: Baculoviral IAP repeat-containing protein 2/E3 ubiquitin-protein ligase XIAP/Breakpoint cluster region protein/Tyrosine-protein kinase ABL1 (Homo sapiens, UniProt P00519+P11274+P98170+Q13490); experiment: Protac activity at IAP/BCR-ABL in human K562 cells assessed as induction of BCR-ABL protein degradation measured after 6 hrs by Western blot analysis; type: cell-based
[3] = target: E3 ubiquitin-protein ligase XIAP/Tyrosine-protein kinase ABL1/Breakpoint cluster region protein (Homo sapiens, UniProt P00519+P11274+P98170); experiment: Protac activity at XIAP/BCR-ABL in human K562 cells assessed as induction of BCR-ABL protein degradation measured after 6 hrs by Western blot analysis; type: cell-based
[4] = target: Estrogen receptor/E3 ubiquitin-protein ligase XIAP (Homo sapiens, UniProt P03372+P98170); experiment: Protac activity at XIAP (unknown origin)/ERalpha (unknown origin) assessed as protein degradation; type: protein assay
Sequence of Estrogen receptor/E3 ubiquitin-protein ligase XIAP (P03372 whole entry): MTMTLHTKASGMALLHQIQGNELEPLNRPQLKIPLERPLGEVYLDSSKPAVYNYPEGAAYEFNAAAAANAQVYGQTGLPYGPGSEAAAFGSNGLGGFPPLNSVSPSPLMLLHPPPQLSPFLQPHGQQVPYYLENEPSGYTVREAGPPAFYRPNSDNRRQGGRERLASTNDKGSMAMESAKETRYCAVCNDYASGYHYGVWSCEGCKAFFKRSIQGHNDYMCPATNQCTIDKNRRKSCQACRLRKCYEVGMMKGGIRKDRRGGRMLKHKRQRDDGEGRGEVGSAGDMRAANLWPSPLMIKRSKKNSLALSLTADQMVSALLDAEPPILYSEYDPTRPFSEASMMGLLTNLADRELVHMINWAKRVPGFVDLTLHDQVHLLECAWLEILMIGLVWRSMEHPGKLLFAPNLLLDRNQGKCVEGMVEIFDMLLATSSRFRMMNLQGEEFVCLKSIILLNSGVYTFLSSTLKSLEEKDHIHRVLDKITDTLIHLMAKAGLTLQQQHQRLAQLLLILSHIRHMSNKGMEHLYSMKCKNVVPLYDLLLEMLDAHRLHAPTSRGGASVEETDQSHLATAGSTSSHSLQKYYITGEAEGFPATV
Sequence of Estrogen receptor/E3 ubiquitin-protein ligase XIAP (P98170 whole entry): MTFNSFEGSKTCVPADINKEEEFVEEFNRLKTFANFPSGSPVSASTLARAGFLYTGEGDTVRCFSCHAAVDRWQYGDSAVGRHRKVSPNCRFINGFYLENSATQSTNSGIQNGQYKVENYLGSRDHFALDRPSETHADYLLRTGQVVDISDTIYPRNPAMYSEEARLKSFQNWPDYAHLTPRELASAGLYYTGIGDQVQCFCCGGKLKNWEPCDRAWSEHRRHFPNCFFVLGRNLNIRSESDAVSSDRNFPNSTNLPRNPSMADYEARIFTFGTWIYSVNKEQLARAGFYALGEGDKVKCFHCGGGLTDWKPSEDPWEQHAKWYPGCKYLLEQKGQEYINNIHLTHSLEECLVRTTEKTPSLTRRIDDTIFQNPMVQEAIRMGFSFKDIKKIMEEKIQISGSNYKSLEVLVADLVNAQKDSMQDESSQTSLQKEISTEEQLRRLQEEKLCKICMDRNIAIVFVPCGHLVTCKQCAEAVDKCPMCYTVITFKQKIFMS

Sequence of Baculoviral IAP repeat-containing protein 2/Cellular retinoic acid-binding protein 2 (P29373 whole entry): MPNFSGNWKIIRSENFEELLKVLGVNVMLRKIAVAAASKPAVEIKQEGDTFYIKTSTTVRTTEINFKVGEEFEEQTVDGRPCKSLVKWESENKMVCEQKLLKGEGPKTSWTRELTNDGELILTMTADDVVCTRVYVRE
Sequence of Baculoviral IAP repeat-containing protein 2/Cellular retinoic acid-binding protein 2 (Q13490 whole entry): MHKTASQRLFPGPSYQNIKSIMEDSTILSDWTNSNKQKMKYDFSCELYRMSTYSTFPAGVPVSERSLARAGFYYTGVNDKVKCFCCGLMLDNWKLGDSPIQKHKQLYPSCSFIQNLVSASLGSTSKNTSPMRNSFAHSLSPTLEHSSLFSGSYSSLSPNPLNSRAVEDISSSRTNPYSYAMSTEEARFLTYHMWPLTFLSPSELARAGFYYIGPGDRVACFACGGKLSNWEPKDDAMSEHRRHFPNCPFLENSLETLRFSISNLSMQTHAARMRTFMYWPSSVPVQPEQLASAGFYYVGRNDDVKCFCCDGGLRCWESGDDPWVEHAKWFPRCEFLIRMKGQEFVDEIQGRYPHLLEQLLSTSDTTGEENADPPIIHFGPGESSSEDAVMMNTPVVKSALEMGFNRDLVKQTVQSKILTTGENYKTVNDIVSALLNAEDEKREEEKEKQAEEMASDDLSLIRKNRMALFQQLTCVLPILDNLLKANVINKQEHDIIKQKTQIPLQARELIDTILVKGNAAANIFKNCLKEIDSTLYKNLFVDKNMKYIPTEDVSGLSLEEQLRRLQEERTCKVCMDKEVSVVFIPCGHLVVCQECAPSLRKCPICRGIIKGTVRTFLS
Sequence of E3 ubiquitin-protein ligase XIAP/Tyrosine-protein kinase ABL1/Breakpoint cluster region protein (P00519 whole entry): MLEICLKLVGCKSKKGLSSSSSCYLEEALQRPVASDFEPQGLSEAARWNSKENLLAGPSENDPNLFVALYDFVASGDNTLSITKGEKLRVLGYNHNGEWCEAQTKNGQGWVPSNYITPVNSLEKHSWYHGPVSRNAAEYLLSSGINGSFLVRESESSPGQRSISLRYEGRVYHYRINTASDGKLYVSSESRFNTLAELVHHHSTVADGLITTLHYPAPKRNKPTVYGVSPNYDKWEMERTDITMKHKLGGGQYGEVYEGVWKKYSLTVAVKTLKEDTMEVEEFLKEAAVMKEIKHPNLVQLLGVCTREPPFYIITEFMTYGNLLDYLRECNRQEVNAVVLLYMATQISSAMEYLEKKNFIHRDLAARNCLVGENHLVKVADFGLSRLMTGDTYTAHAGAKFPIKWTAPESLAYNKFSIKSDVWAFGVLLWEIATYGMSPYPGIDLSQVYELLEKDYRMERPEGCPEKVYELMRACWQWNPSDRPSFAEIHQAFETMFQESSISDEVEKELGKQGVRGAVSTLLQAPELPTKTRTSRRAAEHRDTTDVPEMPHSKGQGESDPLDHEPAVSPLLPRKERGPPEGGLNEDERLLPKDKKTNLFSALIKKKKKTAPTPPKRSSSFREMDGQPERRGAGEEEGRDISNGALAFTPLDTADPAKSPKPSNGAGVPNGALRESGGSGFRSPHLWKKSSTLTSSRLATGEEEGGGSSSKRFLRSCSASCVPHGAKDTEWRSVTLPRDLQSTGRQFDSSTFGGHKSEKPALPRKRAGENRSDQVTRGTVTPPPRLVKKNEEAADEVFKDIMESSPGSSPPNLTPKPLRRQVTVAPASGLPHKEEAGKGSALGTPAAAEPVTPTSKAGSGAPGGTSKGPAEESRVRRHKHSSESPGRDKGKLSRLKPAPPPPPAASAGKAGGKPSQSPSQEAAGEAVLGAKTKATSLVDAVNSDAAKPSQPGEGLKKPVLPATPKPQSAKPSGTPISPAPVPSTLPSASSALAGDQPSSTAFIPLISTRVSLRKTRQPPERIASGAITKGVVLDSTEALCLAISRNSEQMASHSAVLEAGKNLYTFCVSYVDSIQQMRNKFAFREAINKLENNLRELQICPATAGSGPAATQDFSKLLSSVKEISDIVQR
Sequence of E3 ubiquitin-protein ligase XIAP/Tyrosine-protein kinase ABL1/Breakpoint cluster region protein (P98170 whole entry): as the sequence (P98170 whole entry) above
Sequence of E3 ubiquitin-protein ligase XIAP/Tyrosine-protein kinase ABL1/Breakpoint cluster region protein (P11274 whole entry): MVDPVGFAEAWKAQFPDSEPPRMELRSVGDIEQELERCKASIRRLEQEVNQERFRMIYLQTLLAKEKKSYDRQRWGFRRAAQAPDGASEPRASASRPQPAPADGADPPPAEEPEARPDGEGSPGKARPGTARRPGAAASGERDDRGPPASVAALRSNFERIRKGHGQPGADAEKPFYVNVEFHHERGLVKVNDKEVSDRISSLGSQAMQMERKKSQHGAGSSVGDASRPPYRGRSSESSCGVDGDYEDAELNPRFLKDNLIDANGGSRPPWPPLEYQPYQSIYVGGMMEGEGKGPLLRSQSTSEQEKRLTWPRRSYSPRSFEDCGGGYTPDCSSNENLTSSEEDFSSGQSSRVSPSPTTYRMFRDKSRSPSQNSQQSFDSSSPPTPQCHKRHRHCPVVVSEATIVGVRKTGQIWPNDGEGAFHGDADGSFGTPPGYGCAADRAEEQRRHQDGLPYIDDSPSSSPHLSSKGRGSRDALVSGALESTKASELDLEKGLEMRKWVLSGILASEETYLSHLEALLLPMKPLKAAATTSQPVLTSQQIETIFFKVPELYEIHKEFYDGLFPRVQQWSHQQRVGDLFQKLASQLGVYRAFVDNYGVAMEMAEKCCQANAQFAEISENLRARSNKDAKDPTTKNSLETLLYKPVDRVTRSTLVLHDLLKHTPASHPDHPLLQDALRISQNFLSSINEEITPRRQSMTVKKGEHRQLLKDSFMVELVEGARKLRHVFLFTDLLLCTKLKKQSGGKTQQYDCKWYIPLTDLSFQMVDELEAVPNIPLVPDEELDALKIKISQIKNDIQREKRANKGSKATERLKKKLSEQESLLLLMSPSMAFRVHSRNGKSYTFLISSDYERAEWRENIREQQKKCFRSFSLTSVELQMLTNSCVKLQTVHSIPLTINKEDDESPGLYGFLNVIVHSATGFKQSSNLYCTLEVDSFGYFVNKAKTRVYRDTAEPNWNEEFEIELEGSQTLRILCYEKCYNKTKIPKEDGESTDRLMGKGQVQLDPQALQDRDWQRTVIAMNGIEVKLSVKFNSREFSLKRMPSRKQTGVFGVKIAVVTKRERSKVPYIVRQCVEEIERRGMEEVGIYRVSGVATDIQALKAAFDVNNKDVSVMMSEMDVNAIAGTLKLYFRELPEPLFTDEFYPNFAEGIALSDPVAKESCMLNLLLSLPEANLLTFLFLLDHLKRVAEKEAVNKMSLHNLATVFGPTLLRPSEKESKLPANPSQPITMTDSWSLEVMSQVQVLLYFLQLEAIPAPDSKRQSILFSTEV

- EC50 [1]: ≥ 1000 nM
Structure (SMILES): CC1=C(/C=C/C(C)=C/C=C/C(C)=C/C(=O)O)C(C)(C)CC/C1=N\OCC(=O)NCCOCCOCCOC(=O)[C@H](CC(C)C)NC(=O)[C@@H](O)[C@H](N)Cc1ccccc1

- EC50 [2]: < 100 nM
- EC50 [3]: < 100 nM
Structure (SMILES): CN[C@@H](C)C(=O)N[C@H](C(=O)N1CCC[C@H]1c1nc(C(=O)c2cccc(OCCOCCOCCOCC(=O)N3CCN(c4cc(Nc5ncc(C(=O)Nc6c(C)cccc6Cl)s5)nc(C)n4)CC3)c2)cs1)C1CCCCC1

- EC50 [4]: < 100 nM
Structure (SMILES): CC/C(=C(\c1ccc(O)cc1)c1ccc(OCCN(C)C(=O)COCCOCCOCc2cccc(O[C@H]3C[C@@H](C(=O)N[C@@H]4CCCc5ccccc54)N(C(=O)[C@@H](NC(=O)[C@H](C)NC)C4CCCCC4)C3)c2)cc1)c1ccccc1

- EC50 [4]: < 100 nM
Structure (SMILES): CC/C(=C(\c1ccc(O)cc1)c1ccc(OCCN(C)C(=O)COCCCCOc2cccc(C(=O)c3csc([C@@H]4CCCN4C(=O)[C@@H](NC(=O)[C@H](C)NC)C4CCCCC4)n3)c2)cc1)c1ccccc1

From ChEMBL document CHEMBL5241064, “Specific non-genetic IAP-based protein erasers (SNIPERs) as a potential therapeutic strategy” (Eur J Med Chem, 2021)
